# Tested on: cholesterol biosynthesis in rats
# Experiment: In vivo effect on cholesterol biosynthesis in rats (14C-Acetate Model; plasma 14C-nonsaponifiable lipid)
# Set-up: species or system Male Sprague/Dawley rats
# Details: dose suppressing cholesterol synthesis in vivo by 50 percent
# Procedure: SQ 34,346 in oral or IV dosage form was tested in vivo for its effect on cholesterol biosynthesis in rats (^14C-Acetate Model).
# The following in vivo tests employed a rat model system to determine the in vivo cholesterol synthesis inhibitory activity of compounds which show cholesterol synthesis inhibition in whole cell systems (freshly isolated rat hepatocytes and cultured human skin fibroblasts), and which are potent inhibitors of HMG CoA reductase.
# The method used for iv and po drug testing were adapted from a procedure originally described by Sandoz (U.S. Patent No. 4,613,610, Sept. 23, 1986, and Int'I Publication No. WO 86/00367, Derwent Nos. 86271640 and 8628274). […]
# For iv testing, the salt forms of test compounds were routinely dissolved in saline and injected iv into the tail vein 5 minutes before ^14C-acetate injection. […] Cholesterol synthesis was measured by determining the level of ^14C-nonsaponifiable lipid present in one mL of plasma; the method used is a modification of the method described by Dugan, et al, (Dugan, R.E., L.L. Slakey, A.V. Briedis, and J. Porter, Arch. Biochem. Biophys., 152:21 (1972)). […] Samples were counted for both ^3H and ^14C in 10 mL Optiflour scintillation fluid using a Beckman LS3801 counter programed for double label counting. […]
substance,measurement,setting,value
"(S)-4-[[[4-(4-Fluorophenyl)-1,2-bis(1-methylethyl)-5-phenyl-1H-pyrrol-3-yl]-ethynyl]hydroxyphosphinyl]-3-hydroxybutanoic acid, dilithium salt [SQ 34,346]",ED50,"i.v., injected into tail vein 5 minutes before 14C-acetate",0.05 mg/kg
same,ED50,"p.o., given 30 minutes before 14C-acetate",1.13 mg/kg

# Reference: patent EP0463456A1, “Phosphorus-containing HMG-CoA reductase inhibitors, new intermediates and their use” (E.R. SQUIBB & SONS, INC., priority 1990, dated 1992)
